# Assay results reported in publication PMC8342488, “Characterization of a triad of genes in cyanophage S-2L sufficient to replace adenine by 2-aminoadenine in bacterial DNA” (Nature Communications, 2021).
# Legend:
# S-2L PurZ [1] = biological target: T1, S-2L PurZ (Cyanophage S-2L, UniProt A0A7U3TBV6); experiment: X-ray crystal structure, […] Å; assay type: binding; conditions: co-crystallised with dGMP, soaked with dATP; pH 7
# T1 construct: E. coli codon-optimized synthetic gene, N-terminal 14-His tag removed by TEV, expressed in E. coli; dimer
# [2] = biological target: S-2L MazZ (MazG-like (d)GTP-specific nucleotide diphosphohydrolase of cyanophage S-2L) (cyanophage S-2L); experiment: crystal structure; S-2L MazZ with the dGTP dephosphorylation product (dGDP) and Mn2+, 1.43 Å; crystals grown at 18 °C in 200 mM Li2SO4, 1.26 M (NH4)2SO4, 100 mM Tris pH 8.5; tetramer in the asymmetric unit
# S-2L PurZ [3] = biological target: T1, S-2L PurZ; experiment: HPLC product analysis; assay type: biochemical; conditions: 10 mM aspartate, dGMP, 5 mM MgSO4, pH 7.5, 37 °C
# S-2L MazZ [4] = biological target: T2, S-2L MazZ (Cyanophage S-2L, UniProt A0A7U3TBV3); experiment: HPLC product analysis; assay type: biochemical; conditions: 100 uM nucleotide, 5 mM MgCl2, pH 7.5, 37 °C
# T2 construct: gene S2L_23; E. coli codon-optimized synthetic gene, N-terminal 14-His tag removed by TEV, expressed in E. coli; homotetramer
# S-2L MazZ [5] = biological target: T2, S-2L MazZ; experiment: X-ray crystal structure, […] Å; assay type: binding; conditions: crystallised with dGTP; dephosphorylation product dGDP; three Mn2+ ions; pH 8.5
# [6] = biological target: the molecule itself; experiment: crystal structure; S-2L PurZ with dGMP and dATP, 1.7 Å; crystals grown at 4 °C in 15% Tacsimate, 2% PEG 3350, 100 mM HEPES pH 7; dimer reconstructed through crystallographic symmetry
molecule,measurement,setting,value
Nc1nc2c(ncn2[C@H]2C[C@H](O)[C@@H](COP(=O)(O)O)O2)c(=O)[nH]1 [dGMP],"X-ray crystal structure, 1.7 Å",S-2L PurZ [1],"We crystallized S-2L PurZ with two of its substrates, dGMP and dATP"
Nc1ncnc2c1ncn2[C@H]1C[C@H](O)[C@@H](COP(=O)(O)OP(=O)(O)OP(=O)(O)O)O1 [dATP],"X-ray crystal structure, 1.7 Å",S-2L PurZ [1],"We crystallized S-2L PurZ with two of its substrates, dGMP and dATP"
S-2L MazZ (MazG-like (d)GTP-specific nucleotide diphosphohydrolase of cyanophage S-2L) (enzyme),stoichiometry N,[2],4
N[C@@H](CC(=O)O)C(=O)O [aspartic acid],HPLC product analysis,S-2L PurZ [3]; dATP/ATP,"reaction catalyzed by PurZ in presence of dGMP, Asp and dATP/ATP"
Nc1nc2c(ncn2[C@@H]2O[C@H](COP(=O)(O)OP(=O)(O)OP(=O)(O)O)[C@@H](O)[C@H]2O)c(=O)[nH]1 [GTP],HPLC product analysis,S-2L MazZ [4],"Its preferential substrates, dGTP and GTP, are rapidly dephosphorylated to dGMP and GMP"
Nc1nc2c(ncn2[C@H]2C[C@H](O)[C@@H](COP(=O)(O)OP(=O)(O)OP(=O)(O)O)O2)c(=O)[nH]1 [dGTP],HPLC product analysis,S-2L MazZ [4],"Its preferential substrates, dGTP and GTP, are rapidly dephosphorylated to dGMP and GMP"
Nc1nc2c(ncn2[C@H]2C[C@H](O)[C@@H](COP(=O)(O)OP(=O)(O)O)O2)c(=O)[nH]1 [dGDP],"X-ray crystal structure, 1.43 Å",S-2L MazZ [5],The dGDP intermediate observed in crystallo is almost completely buried inside the enzyme
Nc1ncnc2c1ncn2[C@@H]1O[C@H](COP(=O)(O)OP(=O)(O)OP(=O)(O)O)[C@@H](O)[C@H]1O [ATP],HPLC product analysis,S-2L PurZ [3]; 2 mM nucleotides,"it can act as a dATPase, but stays functional after dATP pool depletion by using ATP"
"S-2L PurZ (homologue of adenylosuccinate synthetase of cyanophage S-2L) (enzyme, PurZ of cyanophage S-2L, product of the gene purZ; synthetic gene optimised for E. coli; Crystallised with dGMP and soaked with dATP; The dimer is made by crystallographic symmetry; source: E. coli BL21-CodonPlus (DE3)-RIPL, purified (Ni-NTA, TEV cleavage, Superdex 200); not shown: His14, N-terminal, cleaved) MLSIPPYYRVKNCNLIVDCQYGSTGKGLLAGYLGALEAPQVLCMAPSPNAGHTLVEEDGTARVHKMLPLGITSPSLERIYLGPGSVIDMDRLLEEYLALPRQVELWVHQNAAVVLQEHRDEEAAGGLAPGSTRSGAGSAFIAKIRRRPGTLLFGEAVRDHPLHGVVRVVDTRTAQDMLFRTRSIQAEGCQGYSLSVHHGAYPYCTARDVTTAQLIADCGLPYDVARIARVVGSMRTYPIRVANRPEAGEWSGPCYPDSVECQFADLGLEQEYTTVTKLPRRIFTFSAIQAHEAIAQNGVDEVFLNFAQYPPSLGALEDILDAIEARAEVTYVGFGPKVTDVYHTPTRAELEGLYARYRR",stoichiometry N,[6],2
